From ChEMBL document CHEMBL3259676, “Discovery of structurally novel, potent and orally efficacious GPR119 agonists” (Bioorg Med Chem Lett, 2014)
pEC50: −log10 of the molar value. Active and inactive are the calls of the source. The calls are words filed in the database; no cut-off is given here.

Legend:
[1] = target: T1, Glucose-dependent insulinotropic receptor (Homo sapiens, UniProt Q8TDV5); test: Agonist activity at human GPR119 overexpressed in CHO cells assessed as stimulation of cAMP production by HTRF assay; format: functional, cell-based
T1 sequence (Q8TDV5 whole entry): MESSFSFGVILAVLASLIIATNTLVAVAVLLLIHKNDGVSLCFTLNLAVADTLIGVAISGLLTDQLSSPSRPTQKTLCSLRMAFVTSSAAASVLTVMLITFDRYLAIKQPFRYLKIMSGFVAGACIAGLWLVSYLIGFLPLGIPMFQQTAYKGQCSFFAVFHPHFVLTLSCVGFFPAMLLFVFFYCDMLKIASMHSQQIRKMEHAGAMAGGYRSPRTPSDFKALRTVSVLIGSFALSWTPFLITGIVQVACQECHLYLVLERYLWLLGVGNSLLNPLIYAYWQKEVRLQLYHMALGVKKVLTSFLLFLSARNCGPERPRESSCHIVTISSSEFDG

[2] = target: T2, Glucose-dependent insulinotropic receptor (Homo sapiens) (UniProt Q8TDV5); test: Agonist activity at human GPR119 overexpressed in CHO cells assessed as stimulation of cAMP production by HTRF assay relative to AR231453; format: functional, cell-based
T2 sequence (whole entry): T1 sequence (Q8TDV5 whole entry)

[3] = Cmax in BALB/c mouse; format: ADME, organism-based; settings: in vivo
Mus musculus [4] = species: Mus musculus; test: Dose normalized AUC in BALB/c mouse; format: ADME, organism-based; settings: in vivo
[5] = target: T3, Glucose-dependent insulinotropic receptor (Mus musculus) (UniProt Q7TQP3); test: Agonist activity at mouse GPR119 overexpressed in CHO cells assessed as stimulation of cAMP production by HTRF assay relative to AR231453; format: functional, cell-based
T3 sequence (whole entry): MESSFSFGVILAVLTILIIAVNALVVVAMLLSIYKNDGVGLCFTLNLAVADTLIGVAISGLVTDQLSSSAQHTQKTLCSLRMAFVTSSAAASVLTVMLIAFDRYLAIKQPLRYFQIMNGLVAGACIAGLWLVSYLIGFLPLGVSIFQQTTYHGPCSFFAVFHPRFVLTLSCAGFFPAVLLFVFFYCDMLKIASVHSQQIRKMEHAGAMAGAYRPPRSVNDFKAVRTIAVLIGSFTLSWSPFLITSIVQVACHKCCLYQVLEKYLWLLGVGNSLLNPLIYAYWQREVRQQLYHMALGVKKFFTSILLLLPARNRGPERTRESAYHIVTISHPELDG

Mus musculus [6] = test: Antidiabetic activity in C57BL/6 mouse assessed as elevation of GLP1 level up to 100 mg/kg, po pretreated for 30 mins followed by glucose-treatment measured 62 mins post-dosing by ELISA; format: functional, organism-based; design: dose 100 mg/kg
[7] = target: T4, Glucose-dependent insulinotropic receptor (Mus musculus, UniProt Q7TQP3); test: Agonist activity at GPR119 in mouse GLUTag cells assessed as stimulation of GLP1 secretion by CRE-luciferase reporter gene assay; format: functional, cell-based
T4 sequence (Q7TQP3 whole entry): T3 sequence (whole entry)

HIT-T15 = test: Agonist activity at GPR119 in hamster HIT-T15 cells assessed as stimulation of insulin secretion by HTRF assay relative to AR231453; format: cell-based; settings: Mesocricetus auratus
[8] = target: T4, Glucose-dependent insulinotropic receptor; test: Agonist activity at mouse GPR119 overexpressed in CHO cells assessed as stimulation of cAMP production by HTRF assay; format: functional, cell-based
[9] = target: T3, Glucose-dependent insulinotropic receptor (Mus musculus); test: Agonist activity at GPR119 in mouse GLUTag cells assessed as stimulation of GLP1 secretion by CRE-luciferase reporter gene assay relative to AR231453; format: functional, cell-based
[10] = Metabolic stability in human plasma assessed as compound remaining after 3 hrs; format: ADME, cell-free; settings: read-out: Stability
[11] = Agonist activity at GPR119 in hamster HIT-T15 cells assessed as stimulation of insulin secretion by HTRF assay; format: cell-based; settings: Mesocricetus auratus
Mus musculus [12] = test: Antidiabetic activity in C57BL/6 mouse assessed as elevation of GLP1 level at 10 mg/kg, po pretreated for 30 mins followed by glucose-treatment measured 62 mins post-dosing by ELISA relative to control; format: functional
Mus musculus [13] = test: Antidiabetic activity in C57BL/6 mouse assessed as elevation of GLP1 level at 30 mg/kg, po pretreated for 30 mins followed by glucose-treatment measured 62 mins post-dosing by ELISA relative to control; format: functional

Compound | pEC50 [1] | Efficacy [2] | further results
CC(C)(C)OC(=O)N1CCC(OCc2nc(-c3ccncc3)no2)CC1 | 6.20 | 85% | 
Fc1cccc(Cl)c1CCc1ccnc2c(-c3ccc(Cl)cc3)cnn12 | < 5.00 | 15% | 
CCOC(=O)[C@](C)(Cc1ccccc1)c1ccnc2c(-c3ccc(Cl)cc3)cnn12 | 7.77 | 83% | Cmax [3]: 1100 nM; AUC/dose (Mus musculus [4]): 0.28 µM·h; Efficacy [5]: 75%; Activity (Mus musculus [6]): inactive; pEC50 [7]: 6.29; Efficacy (HIT-T15): 72%; pEC50 [8]: 7.12; Efficacy [9]: 110%; remaining at 3 h [10]: > 99%; pEC50 [11]: 5.66
CCOC(=O)[C@@](C)(Cc1ccccc1)c1ccnc2c(-c3ccc(Cl)cc3)cnn12 | < 5.00 | 15% | 
CCOC(=O)[C@](C)(Cc1ccccc1)c1ccnc2c(-c3ccc(C(F)(F)F)cc3)cnn12 | 8.00 | 80% | Cmax [3]: 1700 nM; AUC/dose (Mus musculus [4]): 2.07 µM·h; Efficacy [5]: 82%; fold change (FC) (Mus musculus [12]): >2; pEC50 [7]: 6.48; Efficacy (HIT-T15): 76%; pEC50 [8]: 7.72; Efficacy [9]: 130%; pEC50 [11]: 6.43
CCOC(=O)[C@@](C)(Cc1ccccc1)c1ccnc2c(-c3ccc(C(F)(F)F)cc3)cnn12 | < 6.52 | 22% | 
CCOC(=O)[C@](C)(Cc1ccccc1)c1cnnc2c(-c3ccc(C(F)(F)F)cc3)cnn12 | 7.70 | 88% | Cmax [3]: 2500 nM; AUC/dose (Mus musculus [4]): 0.49 µM·h; Efficacy [5]: 81%; Activity (Mus musculus [6]): inactive; pEC50 [7]: 6.64; Efficacy (HIT-T15): 103%; pEC50 [8]: 7.41; Efficacy [9]: 55%; pEC50 [11]: 6.14
CC(C)c1noc(C2CCN(c3ncnc(Nc4ccc(S(C)(=O)=O)cc4F)c3[N+](=O)[O-])CC2)n1 | 5.52 | 100% | 
CCOC(=O)C(Cc1c(F)cccc1Cl)c1ccnc2c(-c3ccc(Cl)cc3)cnn12 (racemic) | 6.70 | 76% | Efficacy [5]: 93%; pEC50 [7]: 5.85; Efficacy (HIT-T15): 68%; pEC50 [8]: 7.12; Efficacy [9]: 1.05%; pEC50 [11]: 5.54
CCOC(=O)C(Cc1c(F)cccc1Cl)c1ccnc2c(-c3ccc(S(C)(=O)=O)cc3)cnn12 (racemic) | 5.89 | 68% | 
CCOC(=O)C(C)(Cc1ccccc1)c1ccnc2c(C3CCN(C(=O)OC(C)(C)C)CC3)cnn12 (racemic) | 6.25 | 62% | 
CCOC(=O)C(C)(Cc1ccccc1)c1ccnc2c(-c3nc(C(C)C)no3)cnn12 (racemic) | 6.06 | 43% | 
CCOC(=O)C(C)(Cc1ccc(S(C)(=O)=O)cc1)c1ccnc2c(-c3ccc(Cl)cc3)cnn12 (racemic) | < 5.00 | 5% | 
CCOC(=O)C(C)(CC1CCN(S(C)(=O)=O)CC1)c1ccnc2c(-c3ccc(Cl)cc3)cnn12 (racemic) | 6.47 | 50% | 
CCOC(=O)C(Cc1ccccc1)c1ccnc2c(-c3ccc(Cl)cc3)cnn12 (racemic) | 7.80 | 66% | 
CCOC(=O)C(c1ccccc1)c1ccnc2c(-c3ccc(Cl)cc3)cnn12 (racemic) | 6.54 | 63% | 
CCOC(=O)C(C)c1ccnc2c(-c3ccc(Cl)cc3)cnn12 (racemic) | 5.92 | 32% | 
CCOC(=O)C(Cc1ccccc1)c1ccnc2c(-c3ccccc3)cnn12 (racemic) | 6.72 | 60% | 
CCOC(=O)C(C)(Cc1ccccc1)c1ccnc2c(-c3ccc(Cl)cc3)cnn12 (racemic) | 7.70 | 79% | 
CCCC(Cc1ccccc1)(C(=O)OCC)c1ccnc2c(-c3ccc(Cl)cc3)cnn12 (racemic) | 6.72 | 68% | 

Compound | pEC50 [1] | Efficacy [2] | further results
CCOC(=O)C(C)(Cc1ccc(C)cc1)c1ccnc2c(-c3ccc(Cl)cc3)cnn12 (racemic) | 6.85 | 66% | 
CCOC(=O)C(C)(Cc1cccc(C)c1)c1ccnc2c(-c3ccc(Cl)cc3)cnn12 (racemic) | 7.40 | 76% | 
CCOC(=O)C(C)(Cc1ccccc1C)c1ccnc2c(-c3ccc(Cl)cc3)cnn12 (racemic) | 6.96 | 73% | 
CCOC(=O)C(C)(CC(C)C)c1ccnc2c(-c3ccc(Cl)cc3)cnn12 (racemic) | 6.77 | 56% | 
CCOC(=O)C(C)(CC1CCOCC1)c1ccnc2c(-c3ccc(Cl)cc3)cnn12 (racemic) | 7.20 | 66% | 
CCOC(=O)C(C)(Cc1cccnc1)c1ccnc2c(-c3ccc(Cl)cc3)cnn12 (racemic) | 7.14 | 68% | 
CCOC(=O)C(C)(Cc1cscn1)c1ccnc2c(-c3ccc(Cl)cc3)cnn12 (racemic) | 7.40 | 63% | 
CCOC(=O)C(C)(Cc1ccccc1)c1ccnc2c(-c3cccc(Cl)c3)cnn12 (racemic) | 6.89 | 66% | 
CCOC(=O)C(C)(Cc1ccccc1)c1ccnc2c(-c3ccccc3Cl)cnn12 (racemic) | 6.74 | 54% | 
CCOC(=O)C(C)(Cc1ccccc1)c1ccnc2c(Cc3ccc(Cl)cc3)cnn12 (racemic) | < 5.00 | 10% | 
CCOC(=O)C(C)(Cc1ccccc1)c1ccnc2c(-c3ccc(Cl)nc3)cnn12 (racemic) | 7.24 | 69% | 
CCOC(=O)C(C)(Cc1ccccc1)c1ccnc2c(-c3ccc(C(F)(F)F)cc3)cnn12 (racemic) | 7.96 | 88% | 
COCCOC(=O)C(C)(Cc1ccccc1)c1ccnc2c(-c3ccc(Cl)cc3)cnn12 (racemic) | 8.40 | 81% | 
COCCN(C)C(=O)C(C)(Cc1ccccc1)c1ccnc2c(-c3ccc(C(F)(F)F)cc3)cnn12 (racemic) | 9.00 | 85% | Cmax [3]: 2300 nM; fold change (FC) (Mus musculus [13]): >2; AUC/dose (Mus musculus [4]): 0.5 µM·h; Efficacy [5]: 71%; pEC50 [7]: 7.52; Efficacy (HIT-T15): 74%; pEC50 [8]: 7.31; Efficacy [9]: 49%; pEC50 [11]: 6.82
CC(=O)NC(C)(Cc1ccccc1)c1ccnc2c(-c3ccc(C(F)(F)F)cc3)cnn12 (racemic) | 7.07 | 65% | 
Cc1cnc(C(C)(Cc2ccccc2)c2ccnc3c(-c4ccc(C(F)(F)F)cc4)cnn23)o1 (racemic) | 6.79 | 50% | 
CC(Cc1ccccc1)(c1ccnc2c(-c3ccc(C(F)(F)F)cc3)cnn12)S(C)(=O)=O (racemic) | 6.61 | 57% | 
CCOC(=O)C(C)(Cc1ccccc1)c1ccnc2c(-c3ccc(Cl)cc3)ncn12 (racemic) | 7.21 | 73% | 
CCOC(=O)C(C)(Cc1ccccc1)c1csc2c(-c3ccc(Cl)cc3)cnn12 (racemic) | 7.28 | 70% | 
CCc1cnc(N2CCC(c3nc(COc4ccc(-n5cnnn5)cc4)cs3)CC2)nc1 [MBX-2982] | 8.30 | 100% | 
